Measurements from US20140350081A1, “INSECT G-COUPLED RECEPTORS USEFUL AS TARGETS FOR INSECTICIDES AND COMPOUNDS AND REAGENTS IDENTIFIED USING THE SAME” (priority 2011, published 2014).
Where a name gives a salt, the structure may show the parent alone. Read-outs that look alike come from different tables or passages of the source.

Legend:
Isdop2 = Isdop2 (Ixodes scapularis, UniProt A0ACM8DGL0); assay: cell-based; conditions: for inhibition at 10 µM: read-out: % Inhibition (of response to dopamine), Isdop2 screen
AaDOP2 [1] = molecular target: T1, AaDOP2 (Aedes aegypti, UniProt H6D5H2); assay: LOPAC1280 antagonist screen in HEK-CRELuc-Aadop2 cells; type: cell-based; conditions: for % inhibition of DA activity (Aedes cell-based assay screen): LOPAC1280 screen hits
Ae. aegypti L3 larvae = assay: whole plant or invertebrate; conditions: Aedes aegypti
AaDOP2 [2] = molecular target: T1, AaDOP2; assay: HTRF cAMP accumulation concentration response assay (Cisbio Dynamic 2); type: cell-based
[3] = 10 μM compound, 300 nM dopamine, quadruplicate
[4] = 24 h, read-out: Toxicity to Aedes aegypti larvae (mortality) 24 hours, 400 μM, L3 larvae, three independent experiments
[5] = 48 h, read-out: Toxicity to Aedes aegypti larvae (mortality) 48 hours, 400 μM, L3 larvae, three independent experiments
[6] = 72 h, read-out: Toxicity to Aedes aegypti larvae (mortality) 72 hours, 400 μM, L3 larvae, three independent experiments
[7] = AaDOP2 expressing cells in the presence of dopamine, No Inhibition = <10% inhibition at 3 μM test compound
[8] = in vitro Concentration Response Curve assay, n = 2, relative to control antagonist Amitriptyline, read-out: Avg IC50

T1 sequence (H6D5H2 entry or part of it): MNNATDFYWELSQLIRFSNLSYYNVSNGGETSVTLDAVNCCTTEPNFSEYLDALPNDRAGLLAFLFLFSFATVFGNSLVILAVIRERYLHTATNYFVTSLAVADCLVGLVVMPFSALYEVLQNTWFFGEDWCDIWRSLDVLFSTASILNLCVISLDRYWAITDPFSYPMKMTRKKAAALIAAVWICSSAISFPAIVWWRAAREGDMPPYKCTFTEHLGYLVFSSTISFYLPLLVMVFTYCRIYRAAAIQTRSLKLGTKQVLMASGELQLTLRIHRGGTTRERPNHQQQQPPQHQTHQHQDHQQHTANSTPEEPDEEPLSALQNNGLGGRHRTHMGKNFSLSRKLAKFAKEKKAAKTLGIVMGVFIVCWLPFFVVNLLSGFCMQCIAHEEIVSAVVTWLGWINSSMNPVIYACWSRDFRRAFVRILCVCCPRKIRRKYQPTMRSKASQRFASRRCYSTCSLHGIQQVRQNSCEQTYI
Chain of Isdop2 (A0ACM8DGL0 entry or part of it): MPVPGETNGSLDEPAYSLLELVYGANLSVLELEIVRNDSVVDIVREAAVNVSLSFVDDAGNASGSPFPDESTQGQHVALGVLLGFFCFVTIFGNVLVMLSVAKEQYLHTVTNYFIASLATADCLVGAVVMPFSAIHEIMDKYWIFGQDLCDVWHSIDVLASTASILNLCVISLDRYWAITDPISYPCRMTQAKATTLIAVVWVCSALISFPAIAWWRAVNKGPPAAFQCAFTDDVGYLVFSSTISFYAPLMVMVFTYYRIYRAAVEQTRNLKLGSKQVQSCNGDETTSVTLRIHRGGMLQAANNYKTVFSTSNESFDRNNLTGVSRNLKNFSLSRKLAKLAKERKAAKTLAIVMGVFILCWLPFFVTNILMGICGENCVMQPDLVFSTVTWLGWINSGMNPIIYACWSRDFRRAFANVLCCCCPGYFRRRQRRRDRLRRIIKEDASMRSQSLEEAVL

In the case of CN(C)CCCN1c2ccccc2Sc2ccccc21 [Promazine, N,N-dimethyl-3-(10H-phenothiazin-10-yl)-propan-1-amine], the inhibition at 10 µM (Isdop2) is reported as 87%, the “% of the SCH23390 effect” value (AaDOP2 [1]) is reported as 88% and the “% inhibition of DA activity (Aedes cell-based assay screen)” value (from here on “% inhibition of DA activity”) (AaDOP2 [1]) is reported as 88%.
Cc1nc2sccn2c(=O)c1CCN1CCC(=C(c2ccccc2)c2ccc(F)cc2)CC1 [Diacylglycerol kinase inhibitor I] was tested, and the “% Inhibition (of response to dopamine), Isdop2 screen” value (shortened to “% Inhibition … Isdop2 screen”) (Isdop2) was 69% and the “% of the SCH23390 effect” value (AaDOP2 [1]; [3]) was 90%.
In the case of CC[C@@]1(O)C(=O)OCc2c1cc1n(c2=O)Cc2cc3ccccc3nc2-1 [(S)-(+)-Camptothecin], the “% Inhibition … Isdop2 screen” value (Isdop2; 10 μM compound, footnote 3 mM dopamine) is reported as 97% and the “% of the SCH23390 effect” value (AaDOP2 [1]; [3]) is reported as 93%.
Cc1nc2ccccn2c(=O)c1CCN1CCC(C(=O)c2ccc(F)cc2)CC1 [Pirenperone, 3-[2-[4-(p-fluorobenzoyl)piperidino]ethyl]-2-methyl-4h-pyrido[1,2-a]pyrimidin-4-one] was tested, and the inhibition at 10 µM (Isdop2) was 87%, the “% of the SCH23390 effect” value (AaDOP2 [1]; [3]) was 90% and the “% inhibition of DA activity” value (AaDOP2 [1]) was 90%.
For CNCC[C@@H](Oc1ccccc1C)c1ccccc1 [Atomoxetine], the mortality at 400 µM (Ae. aegypti L3 larvae; [4]) was 20%, the mortality at 400 µM (Ae. aegypti L3 larvae; [5]) was 30% and the mortality at 400 µM (Ae. aegypti L3 larvae; [6]) was 30%. The “IC50 ± S.E.M. (nM), HTRF cAMP assay” value (AaDOP2 [2]; [7]) was “No Inhibition^a”.
With CC(C)[C@H](CO)Nc1nc(Nc2cccc(Cl)c2)c2ncn(C(C)C)c2n1 [Purvalanol A] the “% Inhibition … Isdop2 screen” value (Isdop2) was 84% and the “% of the SCH23390 effect” value (AaDOP2 [1]; [3]) was 93%.
O=C1c2c(O)ccc(O)c2C(=O)c2c(NCCNCCO)ccc(NCCNCCO)c21 [Mitoxantrone] was tested, and the “% of the SCH23390 effect” value (AaDOP2 [1]; [3]) was 83%.
COCCCC/C(=N\OCCN)c1ccc(C(F)(F)F)cc1 [Fluvoxamine] showed a mortality at 400 µM (Ae. aegypti L3 larvae; [4]) of 27%, a mortality at 400 µM (Ae. aegypti L3 larvae; [5]) of 33% and a mortality at 400 µM (Ae. aegypti L3 larvae; [6]) of 43%. For the same compound, the “IC50 ± S.E.M. (nM), HTRF cAMP assay” value (AaDOP2 [2]; [7]) was “No Inhibition^a”.
In the case of O=C1Cc2c([nH]c3ccc(Br)cc23)-c2ccccc2N1 [Kenpaullone], the inhibition at 10 µM (Isdop2) is reported as 68% and the “% of the SCH23390 effect” value (AaDOP2 [1]; [3]) is reported as 83%.
With O=C(Nc1ccc([N+](=O)[O-])cc1Cl)c1cc(Cl)ccc1O [Niclosamide] the inhibition at 10 µM (Isdop2) was 100% and the “% of the SCH23390 effect” value (AaDOP2 [1]; [3]) was 95%.
In the case of O=C1C(SCCO)=C(SCCO)C(=O)c2ccccc21 [NSC 95397], the “% Inhibition … Isdop2 screen” value (Isdop2) is reported as 93% and the “% of the SCH23390 effect” value (AaDOP2 [1]; [3]) is reported as 83%.
With Cc1nc2sccn2c(=O)c1CCN1CCC(=C(c2ccc(F)cc2)c2ccc(F)cc2)CC1 [Ritanserin, 6-[2-[4-[bis(4-fluorophenyl)methylidene]piperidin-1-yl]ethyl]-7-methyl-[1,3]thiazolo[2,3-b]pyrimidin-5-one] the inhibition at 10 µM (Isdop2) was 77%, the “% of the SCH23390 effect” value (AaDOP2 [1]; [3]) was 83% and the “% inhibition of DA activity” value (AaDOP2 [1]) was 83%.
With CN(C)CCCN1c2ccccc2Sc2ccc(C(F)(F)F)cc21 [Triflupromazine, N,N-dimethyl-3-[2-(trifluoromethyl)-10H-phenothiazin-10-yl]propan-1-amine] the inhibition at 10 µM (Isdop2) was 83%, the “% of the SCH23390 effect” value (AaDOP2 [1]) was 88% and the “% inhibition of DA activity” value (AaDOP2 [1]) was 88%.
In the case of CCCCCCCCCCCCCC(=O)O[C@@H]1[C@@H](C)[C@@]2(O)[C@@H](C=C(CO)C[C@]3(O)C(=O)C(C)=C[C@@H]23)[C@@H]2C(C)(C)[C@]12OC(C)=O [Phorbol 12-myristate 13-acetate], the “% Inhibition … Isdop2 screen” value (Isdop2) is reported as 75% and the “% of the SCH23390 effect” value (AaDOP2 [1]) is reported as 88%.
CCOC(=O)C1=C(N)Oc2c(oc(CO)cc2=O)C1c1cc([N+](=O)[O-])ccc1Cl (centres unmarked) [ST071653, ethyl 2-amino-4-(2-chloro-5-nitrophenyl)-6-(hydroxymethyl)-8-oxo-4H-pyrano[3,2-b]pyran-3-carboxylate] was tested, and the IC50 (AaDOP2 [2]; [8]) was 1650 nM.
For CCN1CCN(c2nc(Nc3cccc(F)c3)c3cnn(-c4ccccc4)c3n2)CC1 [Compound G932-0687, 6-(4-ethylpiperazin-1-yl)-N-(3-fluorophenyl)-1-phenyl-1H-pyrazolo[3,4-d]pyrimidin-4-amine], the IC50 (AaDOP2 [2]; [8]) was 769 nM.
Compound COc1ccc(Nc2nc(N3CCN(C)CC3)nc3c2cnn3-c2ccccc2)cc1 [Compound G932-0529, N-(4-methoxyphenyl)-6-(4-methylpiperazin-1-yl)-1-phenyl-1H-pyrazolo[3,4-d]pyrimidin-4-amine] has an IC50 (AaDOP2 [2]; [8]) of 6870 nM.
CCOC(=O)c1c(C)n(-c2ccccc2)c2cc(Br)c(OC)cc12 [ST002262, ethyl 6-bromo-5-methoxy-2-methyl-1-phenylindole-3-carboxylate] gave an IC50 (AaDOP2 [2]; [8]) of 4860 nM.
For O=C1[C@H]2CCCC[C@H]2C(=O)N1CCCCN1CCN(c2nsc3ccccc23)CC1 [Peropirone Hcl, (3aR,7aS)-2-{4-[4-(1,2-benzisothiazol-3-yl)piperazin-1-yl]butyl}hexahydro-1H-isoindole-1,3(2H)-dione], the IC50 (AaDOP2 [2]; [8]) was 186 nM.
Compound CCC(CC)c1nc(Nc2ccc(C(=O)OC)cc2)c2ccccc2n1 [ST029812, methyl 4-{[2-(ethylpropyl)quinazolin-4-yl]amino}benzoate] has an IC50 (AaDOP2 [2]; [8]) of 8930 nM.
Cc1ccc(N(CC2=NCCN2)c2cccc(O)c2)cc1 [Phentolamine HCl, 2-[N-(3-Hydroxyphenyl)-p-toluidinomethyl]-2-imidazolidine hydrochloride] was tested, and the IC50 (AaDOP2 [2]; [8]) was 9030 nM.
CC1CCC(C(C)C)C(OC(=O)C(=O)c2ccccc2)C1 (centres unmarked) [ST070482, 5-methyl-2-(methylethyl)cyclohexyl 2-oxo-2-phenylacetate] showed an IC50 (AaDOP2 [2]; [8]) of 32400 nM.
CCCCC(=O)Nc1ccc(Nc2nc(C)cc(Nc3ccccc3)n2)cc1 [Compound G869-0099, N-(4-((4-methyl-6-(phenylamino)pyrimidin-2-yl)amino)phenyl)pentanamide] was tested, and the IC50 (AaDOP2 [2]; [8]) was 5950 nM.
Cc1ccccc1Nc1nc(Nc2ccccc2C)c2ccccc2n1 [ST027415, (2-methylphenyl){2-[(2-methylphenyl)amino]quinazolin-4-yl}amine] gave an IC50 (AaDOP2 [2]; [8]) of 8860 nM.
Work on CN1CCN(c2nc(Nc3ccc(Cl)cc3)c3cnn(-c4ccccc4)c3n2)CC1 [Compound G932-0379, N-(4-chlorophenyl)-6-(4-methylpiperazin-1-yl)-1-phenyl-1H-pyrazolo[3,4-d]pyrimidin-4-amine] yielded an IC50 (AaDOP2 [2]; [8]) of 3980 nM.
Work on Cc1ccc(Nc2nc(N3CCN(C)CC3)nc3c2cnn3-c2ccccc2)cc1 [Compound G932-0029, 6-(4-methylpiperazin-1-yl)-1-phenyl-N-(p-tolyl)-1H-pyrazolo[3,4-d]pyrimidin-4-amine] yielded an IC50 (AaDOP2 [2]; [8]) of 4550 nM.
Work on COc1ccc(C(CN(C)C)C2(O)CCCCC2)cc1 (centres unmarked) [Venlafaxine] yielded a mortality at 400 µM (Ae. aegypti L3 larvae; [4]) of 3%, a mortality at 400 µM (Ae. aegypti L3 larvae; [5]) of 7% and a mortality at 400 µM (Ae. aegypti L3 larvae; [6]) of 13%. For the same compound, the “IC50 ± S.E.M. (nM), HTRF cAMP assay” value (AaDOP2 [2]; [7]) was “No Inhibition^a”.
In the case of CN(C)CCOc1ccc(/C(=C(/CCCl)c2ccccc2)c2ccccc2)cc1 [Toremifene citrate salt, (Z)-2-(4-(4-Chloro-1,2-diphenyl-1-butenyl)phenoxy)-N,N-dimethylethanamine], the IC50 (AaDOP2 [2]) is reported as 44900 nM.
With Cc1cc(N2CCCC2)nc(Nc2ccc(NC(=O)Cc3ccccc3)cc2)n1 [Compound G869-0499, N-(4-((4-methyl-6-(pyrrolidin-1-yl)pyrimidin-2-yl)amino)phenyl)-2-phenylacetamide] the IC50 (AaDOP2 [2]; [8]) was 9230 nM.
CC1(C)CCC2=C(O1)c1ccccc1C(=O)C2=O [beta-Lapachone] was tested, and the “% of the SCH23390 effect” value (AaDOP2 [1]; [3]) was 86%.
CCC(CC)c1nc(Nc2ccc(C)c(Cl)c2)c2ccccc2n1 [ST029892, (3-chloro-4-methylphenyl)[2-(ethylpropyl)quinazolin-4-yl]amine] gave an IC50 (AaDOP2 [2]; [8]) of 4510 nM.
CC(=O)c1ccc2c(c1)OCO2 [ST092311, 5-acetyl-2H-benzo[d]1,3-dioxolene] gave an IC50 (AaDOP2 [2]) of 5820 nM.
Work on O=C(NCC1CCCCN1)c1cc(OCC(F)(F)F)ccc1OCC(F)(F)F (centres unmarked) [Flecainide Acetate, N-(2-Piperidylmethyl)-2,5-bis-(2,2,2-trifluoroethoxy)benzamide acetate salt] yielded an IC50 (AaDOP2 [2]; [8]) of 318 nM.
Cc1cc(Nc2ccccc2)nc(Nc2ccc(NC(=O)CC(C)C)cc2)n1 [Compound G869-0101, 3-methyl-N-(4-((4-methyl-6-(phenylamino)pyrimidin-2-yl)amino)phenyl)butanamide] showed an IC50 (AaDOP2 [2]; [8]) of 5500 nM.
For COc1cc(OC)cc(C(=O)Nc2ccc(Nc3nc(C)cc(Nc4ccccc4)n3)cc2)c1 [Compound G869-0121, 3,5-dimethoxy-N-(4-((4-methyl-6-(phenylamino)pyrimidin-2-yl)amino)phenyl)benzamide], the IC50 (AaDOP2 [2]; [8]) was 2220 nM.
Work on CC(COc1ccccc1Cc1ccccc1)N1CCCCC1 (racemic) [Benproperine phosphate, (RS)-1-[2-(2-benzylphenoxy)-1-methylethyl]piperidine] yielded an IC50 (AaDOP2 [2]; [8]) of 4510 nM.
CNCCCN1c2ccccc2CCc2ccccc21 [Desipramine] gave a mortality at 400 µM (Ae. aegypti L3 larvae; [4]) of 30%, a mortality at 400 µM (Ae. aegypti L3 larvae; [5]) of 40% and a mortality at 400 µM (Ae. aegypti L3 larvae; [6]) of 43%. It also gave an IC50 (AaDOP2 [2]; AaDOP2 expressing cells in the presence of dopamine, No Inhibition = <10% inhibition at 3 μM test compound, read-out: IC50 ± S.E.M. (nM), HTRF cAMP assay) of 3300 nM.
COc1ccc(Nc2cc(C)nc(Nc3ccc(NC(=O)CC(C)(C)C)cc3)n2)cc1 [Compound G869-0275, N-(4-((4-((4-methoxyphenyl)amino)-6-methylpyrimidin-2-yl)amino)phenyl)-3,3-dimethylbutanamide] was tested, and the IC50 (AaDOP2 [2]; [8]) was 9020 nM.
For Cc1ccc(/N=C/N(C)/C=N/c2ccc(C)cc2C)c(C)c1 [Amitraz], the “IC50 ± S.E.M. (nM), HTRF cAMP assay” value (AaDOP2 [2]; [7]) was “No Inhibition^a”.
CN1CCN(c2nc(Nc3ccc4c(c3)OCO4)c3cnn(-c4ccccc4)c3n2)CC1 [Compound G932-0818, N-(benzo[d][1,3]dioxol-5-yl)-6-(4-methylpiperazin-1-yl)-1-phenyl-1H-pyrazolo[3,4-d]pyrimidin-4-amine] showed an IC50 (AaDOP2 [2]; [8]) of 1650 nM.
c1ccc(CCNc2nc(N3CCNCC3)nc3ccccc23)cc1 [ST095663, (phenylethyl)(2-piperazinylquinazolin-4-yl)amine] showed an IC50 (AaDOP2 [2]; [8]) of 4840 nM.
